In patent US11716994B2, “Combinations of Yersinia entomophaga and pesticides or other substances” (priority 2017, dated 2023):
Where two headings read alike, the source gives them in different places.

What was measured:
black cutworm [1] = experiment: Leaf disk mortality assay, Y. entomophaga cells with chemical insecticides; conditions: for % Mort. Chem.: black cutworm
fall armyworm [2] = experiment: Cabbage leaf disk screening of chemical insecticide rates (flubendiamide alone), mortality; format: in vivo; conditions: 3rd instar
Excerpt: Chemical insecticides were first screened against insects at a range of rates/concentrations to determine which concentrations would provide a moderate level of activity against the insects. If the chemical rates are too high, it is difficult to observe additional effects provided by the addition of either live Y. entomophaga cells or cell free filtrates of Y. entomophaga cultures.
One example is provided for flubendiamide with fall armyworm. An initial rate was selected that would fall within an expected concentration of active ingredient per volume of water, as indicated on the label of insecticide products containing that active ingredient. For flubendiamide, a concentration of 58.5 mg/L was determined based on these criteria. To create this solution, first a 10× concentration solution was made by dissolving 58.5 mg in 100 mL of acetone. Then, 1:10 dilutions of this solution were made into acetone, resulting in concentrations of the compound of 58.5, 5.85, and 0.585 mg/L. Cabbage leaf disks were dipped in either acetone (controls) or concentrations of flubendiamide at 58.5, 5.85, or 0.585 mg/L in acetone. These were set to dry for 1 hr. […] A total of 10 insects were evaluated for each treatment. Insects were observed daily and the number of dead insects was visually determined (% Mortality).

Yersinia entomophaga = experiment: CFU counts after exposure of Yersinia entomophaga to insecticides; format: cell-based; conditions: 1 hour contact
Outline: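 Insecticides at 1× (label-rate based) and 5× or 10× amounts were dried from ethyl acetate as a coat inside tubes. Diluted LB-grown Y. entomophaga culture (1 ml) was added and held 1 hour on the bench. Then 100 μl was plated in triplicate on LB and colonies were counted after 48 hours at 25° C.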

diamondback moth = experiment: whole plant or invertebrate; conditions: flubendiamide 0.059 mg/L; for mortality at 0.059 µg/mL: Plutella xylostella, foliar, Abbott's corrected
Excerpt: (§1) These were set to dry for 1 hr.
as §1
These were set to dry for 1 hr. Cabbage disks were then dipped in either 1% Luria broth (LB) media solution (controls and thiacloprid alone treatments) or in 1% cell free filtrate from a culture Y. entomophaga isolate O24G3R (Y. entomophaga alone or in combination with thiacloprid treatments).

black cutworm [3] = conditions: flubendiamide 0.59 mg/L
Description: To produce cell free filtrates, cultures of Yersinia entomophaga grown in LB medium were centrifuged at 11,448 (g) for 10 minutes. The supernatant was decanted from the centrifuged pellet and filtered through a 0.22 μm filter. Assays were performed to determine concentrations of Yen-TC (toxin complex) using ELISA, and chitinase by measuring chitinase activity on specific substrates. […] This was done to estimate relative potency of the cell free filtrates. Insects were first pre-screened with a range of dilutions of cell free filtrates to select a concentration that provided moderate activity. […] Based on these initial screens, undiluted cell free filtrate was used for cabbage looper, fall armyworm, black cutworm, and Colorado potato beetle. […] In each of the Examples below, this is expressed as 1%.
Cabbage leaf disks were dipped in either acetone (controls and Y. entomophaga alone treatments) or in indoxacarb (Sigma 33969) at 0.53 mg/L in acetone. These were set to dry for 1 hr. […] After the cabbage disks had dried for 1 hr, a single 2nd instar black cutworm was added to each individual cabbage disk. A total of 20 insects were evaluate for each treatment. Insects were observed daily and scored as live or dead.
Cabbage leaf disks were dipped in either acetone (controls and Y. entomophaga alone treatments) or in flubendiamide (Sigma 32801) at 0.59 mg/L in acetone. These were set to dry for 1 hr. […] After the cabbage disks had dried for 1 hr, a single 2nd instar black cutworm was added to each individual cabbage disk. A total of 20 insects were evaluate for each treatment. Insects were observed daily and scored as live or dead.

fall armyworm [4] = experiment: Leaf disk mortality assay, Y. entomophaga cells with chemical insecticides; conditions: for LT50 (95% confidence intervals) in days: 4th instar; for mortality at 0.59 µg/mL: Spodoptera frugiperda, foliar; for % Mort. Chem.: fall armyworm, Flubendiamide 0.59 mg/L
[5] = 3rd instar, flubendiamide 0.20 mg/L, isolate O23ZMJ 1×10^4 cfu/mL
[6] = 3rd instar, flubendiamide 0.20 mg/L, isolate O348UX 1×10^4 cfu/mL
[7] = 3rd instar, flubendiamide 0.59 mg/L, isolate O43NEW 1×10^4 cfu/mL

Cc1cc(C(F)(C(F)(F)F)C(F)(F)F)ccc1NC(=O)c1cccc(I)c1C(=O)NC(C)(C)CS(C)(=O)=O [Flubendiamide]
% Mortality (5DAT) (black cutworm [1]; 3rd instar black cutworm, flubendiamide 0.20 mg/L, Y. entomophaga isolate O24G3R 1 × 10^4 CFU/mL, 5 DAT, Abbott's corrected): 31%
% Mortality (6DAT) (black cutworm [1]; 3rd instar black cutworm, flubendiamide 0.20 mg/L, Y. entomophaga isolate O24G3R 1 × 10^4 CFU/mL, 6 DAT, Abbott's corrected): 44%
% Mortality (7DAT) (black cutworm [1]; 3rd instar black cutworm, flubendiamide 0.20 mg/L, Y. entomophaga isolate O24G3R 1 × 10^4 CFU/mL, 7 DAT, Abbott's corrected): 69%
LT50 (95% confidence intervals) in days (black cutworm [1]; 3rd instar black cutworm, flubendiamide 0.20 mg/L, Y. entomophaga isolate O24G3R 1 × 10^4 CFU/mL, Probit analysis): 4.83 (4.34-5.37) days
% Mortality (5DAT) (black cutworm [1]; [5]): 31%
% Mortality (6DAT) (black cutworm [1]; [5]): 44%
% Mortality (7DAT) (black cutworm [1]; [5]): 69%
LT50 (95% confidence intervals) in days (black cutworm [1]; [5]): 4.83 (4.34-5.37) days
% Mortality (5DAT) (black cutworm [1]; [6]): 31%
% Mortality (6DAT) (black cutworm [1]; [6]): 44%
% Mortality (7DAT) (black cutworm [1]; [6]): 69%
LT50 (95% confidence intervals) in days (black cutworm [1]; [6]): 4.83 (4.34-5.37) days
% Mortality (4DAT) (black cutworm [1]; [7]): 21%
% Mortality (5DAT) (black cutworm [1]; [7]): 22%
% Mortality (6DAT) (black cutworm [1]; [7]): 44%
LT50 (95% confidence intervals) in days (black cutworm [1]; [7]): 4.99 (4.53-5.48) days
% Mort. Chem. (black cutworm [1]; Flubendiamide 0.2 mg/L, 5 DAT (row with O23ZMJ)): 31%
% Mort. Chem. (black cutworm [1]; Flubendiamide 0.2 mg/L, 5 DAT (row with O24G3R)): 31%
% Mort. Chem. (black cutworm [1]; Flubendiamide 0.2 mg/L, 5 DAT (row with O348UX)): 31%
% Mort. Chem. (black cutworm [1]; Flubendiamide 0.59 mg/L, 6 DAT): 44%
% Mort (4DAT) (fall armyworm [2]; flubendiamide at 0.585 mg/L): 0%
% Mort (5DAT) (fall armyworm [2]; flubendiamide at 0.585 mg/L): 10%
% Mort (6DAT) (fall armyworm [2]; flubendiamide at 0.585 mg/L): 10%
% Mort (7DAT) (fall armyworm [2]; flubendiamide at 0.585 mg/L): 10%
% Mort (8DAT) (fall armyworm [2]; flubendiamide at 0.585 mg/L): 10%
% Mort (11DAT) (fall armyworm [2]; flubendiamide at 0.585 mg/L): 20%
% Mort (12DAT) (fall armyworm [2]; flubendiamide at 0.585 mg/L): 30%
LT50 (95% confidence intervals) (fall armyworm [2]; flubendiamide at 0.585 mg/L): 14.38 days
% Mort (4DAT) (fall armyworm [2]; flubendiamide at 5.85 mg/L): 10%
% Mort (5DAT) (fall armyworm [2]; flubendiamide at 5.85 mg/L): 30%
% Mort (6DAT) (fall armyworm [2]; flubendiamide at 5.85 mg/L): 90%
% Mort (7DAT) (fall armyworm [2]; flubendiamide at 5.85 mg/L): 100%
% Mort (8DAT) (fall armyworm [2]; flubendiamide at 5.85 mg/L): 100%
% Mort (11DAT) (fall armyworm [2]; flubendiamide at 5.85 mg/L): 100%
% Mort (12DAT) (fall armyworm [2]; flubendiamide at 5.85 mg/L): 100%
LT50 (95% confidence intervals) (fall armyworm [2]; flubendiamide at 5.85 mg/L): 4.61 days
% Mort (4DAT) (fall armyworm [2]; flubendiamide at 58.5 mg/L): 70%
% Mort (5DAT) (fall armyworm [2]; flubendiamide at 58.5 mg/L): 90%
% Mort (6DAT) (fall armyworm [2]; flubendiamide at 58.5 mg/L): 100%
% Mort (7DAT) (fall armyworm [2]; flubendiamide at 58.5 mg/L): 100%
% Mort (8DAT) (fall armyworm [2]; flubendiamide at 58.5 mg/L): 100%
% Mort (11DAT) (fall armyworm [2]; flubendiamide at 58.5 mg/L): 100%
% Mort (12DAT) (fall armyworm [2]; flubendiamide at 58.5 mg/L): 100%
LT50 (95% confidence intervals) (fall armyworm [2]; flubendiamide at 58.5 mg/L): 2.88 days
Average CFU (Yersinia entomophaga; 0.5 mg insecticide): 328 CFU
Average CFU (Yersinia entomophaga; 5.0 mg insecticide): 0 CFU
LT50 (95% confidence intervals) (diamondback moth; 2nd instar diamondback moth, 1% O43NEW filtrate, Probit analysis): 6.52 days
LT50 Chem. (diamondback moth; Diamondback moth): 6.52 days
% Mort. Chem. (diamondback moth; Diamondback moth, 6 DAT): 32%
mortality at 0.059 µg/mL (diamondback moth; 96 h, read-out: % Mortality (4DAT), diamondback moth, 1% O43NEW filtrate, 4 DAT): 16%
mortality at 0.059 µg/mL (diamondback moth; 120 h, read-out: % Mortality (5DAT), diamondback moth, 1% O43NEW filtrate, 5 DAT): 32%
mortality at 0.059 µg/mL (diamondback moth; 144 h, read-out: % Mortality (6DAT), diamondback moth, 1% O43NEW filtrate, 6 DAT): 32%
mortality at 0.059 µg/mL (diamondback moth; 168 h, read-out: % Mortality (7DAT), diamondback moth, 1% O43NEW filtrate, 7 DAT): 58%
mortality at 0.059 µg/mL (diamondback moth; 264 h, read-out: % Mortality (11DAT), diamondback moth, 1% O43NEW filtrate, 11 DAT): 67%
LT50 (95% confidence intervals) (black cutworm [3]; 2nd instar black cutworm, undiluted O43NEW filtrate, Probit analysis): 7.05 days
LT50 Chem. (black cutworm [3]; Black cutworm): 7.05 days
% Mort. Chem. (black cutworm [3]; Black cutworm, 7 DAT): 42%
% Mortality (5DAT) (black cutworm [3]; black cutworm, undiluted O43NEW filtrate, 5 DAT, Abbott's corrected): 0%
% Mortality (6DAT) (black cutworm [3]; black cutworm, undiluted O43NEW filtrate, 6 DAT, Abbott's corrected): 37%
% Mortality (7DAT) (black cutworm [3]; black cutworm, undiluted O43NEW filtrate, 7 DAT, Abbott's corrected): 42%
% Mortality (8DAT) (black cutworm [3]; black cutworm, undiluted O43NEW filtrate, 8 DAT, Abbott's corrected): 53%
% Mortality (9DAT) (black cutworm [3]; black cutworm, undiluted O43NEW filtrate, 9 DAT, Abbott's corrected): 74%
LT50 (95% confidence intervals) (fall armyworm [4]; 3rd instar, flubendiamide 0.59 mg/L, isolate O43NEW 1×10^6 cfu/mL): 18.28 days
LT50 (95% confidence intervals) in days (fall armyworm [4]; flubendiamide 0.59 mg/L, isolate O23ZMJ 1×10^5 cfu/mL): 7.46 (6.86-8.10) days
LT50 (95% confidence intervals) in days (fall armyworm [4]; flubendiamide 0.59 mg/L, isolate O24G3R 1×10^5 cfu/mL): 7.46 (6.86-8.10) days
LT50 (95% confidence intervals) in days (fall armyworm [4]; flubendiamide 0.59 mg/L, isolate O348UX 1×10^5 cfu/mL): 7.46 (6.86-8.10) days
mortality at 0.59 µg/mL (fall armyworm [4]; 96 h, read-out: % Mortality (4DAT), 4th instar, flubendiamide 0.59 mg/L, isolate O23ZMJ 1×10^5 cfu/mL): 0%
mortality at 0.59 µg/mL (fall armyworm [4]; 96 h, read-out: % Mortality (4DAT), 4th instar, flubendiamide 0.59 mg/L, isolate O24G3R 1×10^5 cfu/mL): 0%
mortality at 0.59 µg/mL (fall armyworm [4]; 96 h, read-out: % Mortality (4DAT), 4th instar, flubendiamide 0.59 mg/L, isolate O348UX 1×10^5 cfu/mL): 0%
mortality at 0.59 µg/mL (fall armyworm [4]; 120 h, read-out: % Mortality (5DAT), 4th instar, flubendiamide 0.59 mg/L, isolate O348UX 1×10^5 cfu/mL): 30%
mortality at 0.59 µg/mL (fall armyworm [4]; 144 h, read-out: % Mortality (6DAT), 3rd instar, flubendiamide 0.59 mg/L, isolate O43NEW 1×10^6 cfu/mL): 0%
mortality at 0.59 µg/mL (fall armyworm [4]; 144 h, read-out: % Mortality (6DAT), 4th instar, flubendiamide 0.59 mg/L, isolate O24G3R 1×10^5 cfu/mL): 26%
mortality at 0.59 µg/mL (fall armyworm [4]; 144 h, read-out: % Mortality (6DAT), 4th instar, flubendiamide 0.59 mg/L, isolate O348UX 1×10^5 cfu/mL): 26%
mortality at 0.59 µg/mL (fall armyworm [4]; 168 h, read-out: % Mortality (7DAT), 3rd instar, flubendiamide 0.59 mg/L, isolate O43NEW 1×10^6 cfu/mL): 0%
mortality at 0.59 µg/mL (fall armyworm [4]; 264 h, read-out: % Mortality (11DAT), 3rd instar, flubendiamide 0.59 mg/L, isolate O43NEW 1×10^6 cfu/mL): 18%
mortality at 0.59 µg/mL (fall armyworm [4]; […], read-out: % Mortality (8DAT), 3rd instar, flubendiamide 0.59 mg/L, isolate O43NEW 1×10^6 cfu/mL): 5%
% Mort. Chem. (fall armyworm [4]; 4 DAT): 26%
% Mort. Chem. (fall armyworm [4]; 6 DAT (row with O23ZMJ)): 0%
% Mort. Chem. (fall armyworm [4]; 6 DAT (row with O348UX)): 26%
% Mort. Chem. (fall armyworm [4]; 7 DAT): 0%
